Laboratory results reported in patent publication US7932264B2, “Sinomenine derivatives and preparation and uses thereof” (priority 2005, dated 2011).
pIC50: −log10 of the molar value.

Experiments:
Format in all cases: cell-based
[1] = system: LPS-induced TNF-α production; assay: Inhibition of LPS-induced TNF-α production in human whole blood culture; conditions: LPS 10 ng/ml, 6 h; for pIC50: IC50 by program calcdemo, read-out: IC50 to inhibit LPS-induced TNF-α production
Procedure: (§1) Human blood sample (−20 ml) was taken from a peripheral venous (10 ml) of a healthy volunteer (20-50 years old, nonsmoker) using sterile endotoxin-free ethylenediaminetetraacetic (EDTA) tube and was immediately processed. The blood samples were divided into three different experimental conditions (groups): control, stimulating with LPS alone and LPS plus testing compound. Each group contained five blood samples from different individuals. In control group, 100 μl of whole blood sample were diluted with 900 μL of RPMI 1640 in 24 wells plate. In LPS only group or LPS plus testing compound group, 100 ul of whole blood were diluted with 1 μl testing compound or DMSO and 889 ul of RPMI 1640 (RPMI 1640 was consisted of 25 mM Hepes supplemented with 100 U/mL penicillin, 100 μg/mL streptomycin, 4 mM 1-glutamine, and 10% fetal calf serum) All samples from the three groups were incubated in 37° C. and 5% CO2 for 15 minutes, then 10 μl LPS (1 μg/ml) was added into these samples except samples of control group, and was kept in 37° C. and 5% CO2 for 6 h. The samples were placed on ice for 3 minutes and centrifuged for 10 min at 4° C. and 1500 g. The supernatants of the whole blood culture were taken and kept at −80° C. for analysis of TNF-α, IL-1, IL-6 and IL-8.
The samples from above described protocol were used to determine the release of TNF-α from whole blood culture induced by LPS stimulation and the inhibition by each of 22 tested compounds on the LPS-induced TNF-α production. The TNF-α production was assessed using human TNF-α Enzyme Immunometric Assay Kit (Lot. 235123) from R&D Systems (MN, USA), the detail methods are described as the instruction of the Kit. The concentration of LPS-induced TNF-α production in whole blood culture was 884.2±329.8 pg/ml. These 22 compounds were divided into three groups according to their inhibition potencies on the LPS-induced TNF-α production:
(§2) Since compounds #54 and #44 we obtained were mixed chemical isomers, these two compounds have been excluded from the IC50 experiments. […] concentrations of the compounds (#20, #33, #37, #39, and #48) were tested: 10^−9, 10^−8, 10^−7, 10^−6, 10^−5 and 10^−4 Molar/L. The parent compound, sinomenine, was used as a control. The IC50 was determined by program calcdemo.
The blood samples were incubated in the presence of LPS (concentration. 10 ng/ml) for 6 h. Sinomenine (SIN) was used as control. Because all tested compounds including SIN had no effect at concentration of 10^−9 on LPS-induced TNF-α production, the levels of LPS-induced TNF-α production at 10^−9 of tested compounds in the figures were equivalent to the levels of TNF-α in blood samples with LPS alone. Data in panel a of the figures (a1-a6) present the absolute values of TNF-α; data in panel b (b1-b6) present the percentage inhibition of the tested compounds on LPS-induced TNF-α production. All data were Mean±SD (n=6).

[2] = system: LPS-induced IL-8 production; assay: Inhibition of LPS-induced IL-8 production in human whole blood culture; conditions: LPS 10 ng/ml, 6 h; for pIC50: human whole blood culture, IC50 by program calcdemo, read-out: IC50 to inhibit LPS-induced IL-8 production
Procedure: as §1, §2
(§3) The inhibition of tested compounds on LPS-induced IL-8 production was assessed using human IL-8 Elisa Kit (Lot number 061302B) from Biosource (Carlsbad, Calif., USA). The methods are briefly described according to the instruction in the Kit as below, all reagents and solutions were supplied with the Kit:
(§4) 1) Reagents and solutions were properly prepared for the experiments to determine bioactivity according to the instruction of the Kit.
(§5) 2) Standard solution supplied with the Kit, blood sample with testing compound and blood sample with LPS alone was (50 μL of each item) added into per well. Then, 50 μL of Biotin Conjugate was also added to each well. The well was covered with the adhesive strip. Then those wells were incubated for 1.5 hours at room temperature. 3) Each well was aspirated and washed by filling wash buffer (600 μL) using an autowasher. The liquid was completely removed at each step to ensure good performance. This process was repeated three times for a total of four washes. 4) 100 μL of Streptavidin-HRP working solution was added to each well and the well was covered with a new adhesive strip, incubated for 30 min at room temperature. 5) The same aspiration and wash procedures were repeated as described in step 3. 6) 100 μL of Stabilized Chromogen was added to each well and incubated for 30 minutes at room temperature. These wells were protected from light. 7) 100 μL of Stop Solution was added to each well. 8) The optical density of each well was determined within 30 minutes using a microplate reader set to 450 nm.
The blood samples were incubated in the presence of LPS (concentration: 10 ng/ml) for 6 hours. The effects of sinomenine (SIN) on LPS-induced IL-8 production were also examined. […]

[3] = system: LPS-induced IL-6 production; assay: Inhibition of LPS-induced IL-6 production in human whole blood culture; conditions: LPS 10 ng/ml, 6 h; for pIC50: human whole blood culture, IC50 by program calcdemo, read-out: IC50 to inhibit LPS-induced IL-6 production
Procedure: as §1, §2
as §3, with “IL-6” for “IL-8”, “054204D)” for “061302B)”
as §4
as §5, with “50 μL of standard” for “Standard”, “was” for “was (50 μL of each item)”, “added” for “added into”, “was” for “was also”, “2” for “1.5”
The blood samples were incubated in the presence of LPS (concentration: 10 ng/ml) for 6 h. The effects of sinomenine (SIN) on LPS-induced IL-6 production were also examined. […]

[4] = system: LPS-induced IL-1 production; assay: Inhibition of LPS-induced IL-1 production in human whole blood culture; conditions: LPS 10 ng/ml, 6 h; for pIC50: human whole blood culture, IC50 by program calcdemo, read-out: IC50 to inhibit LPS-induced IL-1 production
Procedure: as §1, §2
The inhibition of tested compounds on LPS-induced IL-1 production was assessed using human IL-1βEnzyme Immunometric Assay Kit (Lot number 145020) from Cayman Chemical Company (MI, USA). The methods are briefly described according to the instructions supplied with the Kit. All reagents and solutions were supplied with the Kit:
1) Reagents and solutions were properly prepared for the experiments to determine bioactivity according to the instruction.
2) Standard solution provided with the Kit, blood sample with testing compound and blood sample with LPS alone which were prepared as above described, 50 ul for each of these solution or blood samples, was added to each well. Then, 10 μL of DTT, 5 μL of mouse serum and 100 μL of Fab′ were also added into each well together. The well was covered with the adhesive strip. Then those wells were incubated overnight at 4° C. A plate layout was provided to record standards and samples assayed. 3) Each well was washed by filling wash buffer (600 μL) using an autowasher. The liquid was completely removed at each step to ensure good performance. This process was repeated four times for a total of five washes. 4) 200 μL of Ellman's reagent was added to each well and the plate was covered with a piece of dark paper, incubated for 4 hours at room temperature with gentle shaking. 5) The optical density of each well was determined using a microplate reader set to 412 nm.
The blood samples were incubated in the presence of LPS (concentration: 10 ng/ml) for 6 h. The inhibition of Sinomenine (SIN) on LPS-induced IL-1 production was also examined. Because all tested compounds including SIN had no effect at concentration of 10^−9 on LPS-induced IL-1 production, the levels of LPS-induced IL-1 production at 10^−9 of tested compounds in the figures were equivalent to the levels of IL-1 in blood samples with LPS alone. […]

SMILES	effect on LPS-induced TNF-α production at concentration of 10^−9 ([1]; 10^−9 mol/L)	effect on LPS-induced IL-8 production at concentration of 10^−9 ([2]; 10^−9 mol/L)	pIC50 [2]	effect on LPS-induced IL-6 production at concentration of 10^−9 ([3]; 10^−9 mol/L)	pIC50 [3]	effect on LPS-induced IL-1 production at concentration of 10^−9 ([4]; 10^−9 mol/L)	inhibition at 10 µM ([1]; compound 10^−5 mol/L, human whole blood culture, read-out: inhibition of LPS-induced TNF-α production compared to LPS alone)	pIC50 ([1]; human whole blood culture)	pIC50 [4]
COC1=CC2[C@@H]3Cc4ccc(OC)c(O)c4[C@]2(CCN3C)CC1=O (stereo partly drawn) [Compound 1, sinomenine]	no effect	no effect	4.13	no effect	2.77	no effect	–	–	–
COC1=CC2[C@@H]3Cc4ccc(OC)c(O)c4[C@]2(CCN3C(=O)c2cc(C)cc(C)c2)CC1=O (stereo partly drawn) [Compound 9]	–	–	–	–	–	–	< 30%	–	–
COC(=O)c1cccc(C)c1S(=O)(=O)N1CC[C@@]23CC(=O)C(OC)=C[C@@H]2[C@@H]1Cc1ccc(OC)c(O)c13 [Compound 33]	–	–	2.14	–	5.06	–	–	5.36	4.00
COC1=C[C@@H]2[C@@H]3Cc4ccc(OC)c(O)c4[C@]2(CCN3C(=O)c2cccnc2)CC1=O [Compound 37]	–	–	2.12	–	–	–	–	3.38	5.06
COC1=C[C@@H]2[C@@H]3Cc4ccc(OC)c(O)c4[C@]2(CCN3C(=O)c2ccc(C)cc2)CC1=O [Compound 39]	–	–	–	–	5.28	–	–	4.89	2.31
COc1ccc2c(c1OC)C13CCN(C)C(C2)C1CC=NN(S(=O)(=O)c1ccc(C)cc1)C(O)C3 (stereo not drawn) [Compound 48]	–	–	2.42	–	3.00	–	–	3.12	2.02
